Laboratory results published in patent US20220233624A9, “ANTI-CANCER AND ANTI-PROLIFERATIVE COMPOSITIONS, AND METHODS FOR THEIR USE IN TREATING CANCER” (Natreon, Inc., priority 2020, published 2022).
Where “and” joins values, the source holds several entries; their conditions need not be identical. Identical values can stand only once. Like-named read-outs stand apart in the source and are kept apart here. Marks after values point to notes of the source that are not given here.

Columns and labels:
[1] = system: Breast Cancer PDCs, ER/PR+ Her2 equivocal (HR+); test: Anti-proliferation assay on breast cancer HR+ PDCs; assay type: cell-based, human; conditions: drug alone @ 3 uM; for inhibition at 3 µM: Homo sapiens; for % Inhibition, single replicates: 3 µM
Description: (§1) The outermost rows/columns of the plates were filled with PBS (pH 7.4) to avoid an edge-effect and were considered as blanks. Standardized aqueous extracts identified in Table 2 were prepared in main stock solutions by dissolving 1 mg of extract in 1 ml PBS (phosphate-buffered saline, pH 7.4). […] The plate was incubated in a CO2 incubator for 0/N incubation for 24 hours. […] Once extracts were added to incubated cells and mixed gently, the plate was given a brief spin and incubated in the CO2 incubator for 72 hours. The plate was removed from the incubator and 10 ul of detection reagent (CellTiterGlo®; Promega Corporation, Wisconsin, USA) added to each well of the 384 well plate. […] The assay described above is a two-dimensional (2D) assay.

[2] = system: Breast Cancer PDCs, ER/PR− Her2+ (Her2+); test: Anti-proliferation assay on breast cancer Her2+ PDCs; assay type: cell-based, human; conditions: drug alone @ 3 uM; for inhibition at 3 µM: Homo sapiens; for % Inhibition, single replicates: 3 µM
Description: as §1

[3] = system: Breast Cancer PDCs, Triple negative (TN), SB 36344; test: Anti-proliferation assay on breast cancer TN PDCs; assay type: cell-based, human; conditions: drug alone @ 3 uM; for inhibition at 3 µM: Homo sapiens; for % Inhibition, single replicates: 3 µM
Description: as §1

[4] = system: Non-small cell lung cancer cells (cell line NCI-H-358); test: Anti-proliferation assay on non-small cell lung cancer cells; assay type: cell-based; conditions: Homo sapiens, NCI-H358
Description: (§2) Anti-proliferative and anti-cancer activity of extracts of this invention on non-small cell lung cancer cells and colon cancer cells were assessed generally as described in Example I and are discussed below. […] As noted throughout this application, the below data is intended to describe the present invention but not to be limiting.
(§3) Non-small cell lung cancer cells (cell line NCI-H-358) and colon cancer cells (cell line HT-29) were plated in a 384-well plate in amounts of about 1.25 k cells/well. […] Wells with untreated cells and with plain media were also included as controls. Plates passed quality control parameters.

[5] = system: TN breast cancer PDCs SB 30750; test: Anti-proliferation assay on TN breast cancer PDCs SB 30750; assay type: cell-based; conditions: Homo sapiens, 3 uM, 72 h
Description: In this Example, AyuFlex®, Capros®, and Ayuric® were each applied to different PDCs than previous tests, TN breast cancer PDCs SB 30750, and tested via the anti-proliferation assay described above. […] Incubation times were 72 hours.

[6] = system: TN Breast Cancer cell line MDAMB-231; test: Anti-proliferation assay on MDAMB-231 cells (72 h and 120 h); assay type: cell-based; conditions: Homo sapiens, MDA-MB-231, 3 uM
Description: Also, AyuFlex®, Capros®, and Ayuric® were tested in the anti-proliferative assay discussed above in the TN Breast Cancer cell line MDAMB-231. AyuFlex®, Capros®, and Ayuric® were incubated for 72 hours and 120 hours. The dose-response efficacy of AyuFlex®, Capros®, and Ayuric® after a 72-hour period of incubation was similar to that observed after a 120-hour period of incubation with the MDAMB-231 cells. Without being bound by theory, possibly this was due to saturation of cell growth at the 120-hour time-point.

[7] = system: SHP-77 (small cell lung cancer) cells; test: Anti-proliferation assay on small cell lung cancer cells; assay type: cell-based; conditions: Homo sapiens, SHP77
Description: SHP-77 (small cell lung cancer) cells were incubated for 72 hours with 100 ug/ml, 30 ug/ml, and 10 ug/ml each of AyuFlex®, Capros® Phyto-BGS®, PrimaVie®, Sensoril®, Ayuric®, and Crominex®, and tested according to the anti-proliferative assay described above. Cells were plated at 1.25 k/well in 384 well plates. Standard of care drug docetaxel was also tested at a 10 uM concentration as a control. Anti-proliferative assays were generally performed as discussed above, in triplicate, with detection reagent CellTiterGlo® as discussed for instance in Example I. Tables 77-79 show data for controls and that the data passed quality control parameters.

[8] = system: Prostate cancer (PC-3) cells; test: Anti-proliferation assay on prostate cancer cells; assay type: cell-based; conditions: Homo sapiens
Description: (§4) Cells were plated at 1.25 k/well in 384 well plates. […] Anti-proliferative assays were generally performed as discussed in Example I above, in triplicate, with detection reagent CellTiterGlo. Tables 80-82 show data for controls for assays on prostate cancer (PC-3 cells), and that the data passed quality control parameters. Tables 83-85 show data for controls for assays on ovarian cancer (OVCAR-3 cells), and that the data passed quality control parameters.

[9] = system: Ovarian cancer (OVCAR-3) cells; test: Anti-proliferation assay on ovarian cancer cells; assay type: cell-based; conditions: Homo sapiens
Description: as §4

[10] = system: Non-small cell lung cancer cells (cell line NCI-H-358); conditions: Intl. J. Oncol. 31:241-252 (2007); read-out: IC50 (published); cited from earlier work
[11] = system: colon cancer cells (cell line HT-29); test: Anti-proliferation assay on colon cancer cells; assay type: cell-based; conditions: Homo sapiens
Description: as §2, §3

[12] = system: colon cancer cells (cell line HT-29); conditions: J. Surg. Res. 111(1):63-69 (2003); read-out: IC50 (published); cited from earlier work
[13] = read-out: % Inhibition, single replicates
[14] = drug 10 uM, read-out: inhibition of proliferation
[15] = plate control @ 10 uM, read-out: % Inhibition Average (SD)
[16] = plate control @ 10 uM, read-out: % Inhibition n1
[17] = plate control @ 10 uM, read-out: % Inhibition n2
[18] = plate control @ 10 uM, read-out: % Inhibition n3
[19] = 72 hour incubation, read-out: % Inhibition Avg
[20] = 72 hour incubation, read-out: % Inhibition n1
[21] = 72 hour incubation, read-out: % Inhibition n2
[22] = 72 hour incubation, read-out: % Inhibition n3
[23] = 120 hour incubation, read-out: % Inhibition Avg
[24] = 120 hour incubation, read-out: % Inhibition n1
[25] = 120 hour incubation, read-out: % Inhibition n2
[26] = 120 hour incubation, read-out: % Inhibition n3
[27] = 10 uM, 72 h, read-out: % Inhibition Average (SD)
[28] = 10 uM, 72 h, read-out: % Inhibition n1
[29] = 10 uM, 72 h, read-out: % Inhibition n2
[30] = 10 uM, 72 h, read-out: % Inhibition n3
[31] = drug 10 uM, read-out: inhibition

CC(=O)O[C@@]12CO[C@@H]1C[C@H](O)[C@@]1(C)C(=O)[C@H](O)C3=C(C)[C@@H](OC(=O)[C@H](O)[C@@H](NC(=O)OC(C)(C)C)c4ccccc4)C[C@@](O)([C@@H](OC(=O)c4ccccc4)[C@H]21)C3(C)C [Docetaxel, docetaxel]
inhibition at 3 µM ([1]; read-out: % Inhibition Avg): ~59% | inhibition at 3 µM [1, 13]: 67% | % Inhibition, single replicates [1]: 53% and 58% | inhibition at 3 µM [2]: ~50% | % Inhibition, single replicates [2]: 30* % and 43% and 57% | inhibition at 3 µM ([3]; read-out: % Inhibition Avg): ~48% | inhibition at 3 µM [3, 13]: 56% | % Inhibition, single replicates [3]: 44% and 43% | inhibition at 10 µM [4, 14]: 58% | inhibition at 10 µM [4, 15]: 58% | inhibition at 10 µM [4, 16]: 63% | inhibition at 10 µM [4, 17]: 55% | inhibition at 10 µM [4, 18]: 58% | inhibition at 3 µM ([5]; read-out: % Inhibition Avg): 56% | inhibition at 3 µM ([5]; read-out: % Inhibition n1): 68% | inhibition at 3 µM ([5]; read-out: % Inhibition n2): 52% | inhibition at 3 µM ([5]; read-out: % Inhibition n3): 47% | inhibition at 3 µM [6, 19]: 56% | inhibition at 3 µM [6, 20]: 67% | inhibition at 3 µM [6, 21]: 50% | inhibition at 3 µM [6, 22]: 52% | inhibition at 3 µM [6, 23]: 75% | inhibition at 3 µM [6, 24]: 78% | inhibition at 3 µM [6, 25]: 71% | inhibition at 3 µM [6, 26]: 76% | inhibition at 10 µM [7, 27]: 90% | inhibition at 10 µM [7, 28]: 90% | inhibition at 10 µM [7, 29]: 91% | inhibition at 10 µM [7, 30]: 89% | inhibition at 10 µM [7, 31]: 90% | inhibition at 10 µM [8, 27]: 58% | inhibition at 10 µM [8, 28]: 53% | inhibition at 10 µM [8, 29]: 67% | inhibition at 10 µM [8, 30]: 56% | inhibition at 10 µM [8, 31]: 58% | inhibition at 10 µM [9, 27]: 66% | inhibition at 10 µM [9, 28]: 65% | inhibition at 10 µM [9, 29]: 68% | inhibition at 10 µM [9, 30]: 65% | inhibition at 10 µM [9, 31]: 66% | IC50 [10]: 0.367 µM

O=c1[nH]cc(F)c(=O)[nH]1 [5-FU, 5-fluorouracil]
inhibition at 3 µM ([1]; read-out: % Inhibition Avg): ~28% | % Inhibition Avg [1]: 29% | % Inhibition, single replicates [1]: 42% and 20% and 23% | inhibition at 3 µM [2]: 18% | % Inhibition, single replicates [2]: 41* % and 16% and 19% | inhibition at 3 µM ([3]; read-out: % Inhibition Avg): 38% | inhibition at 3 µM [3, 13]: 48% | % Inhibition, single replicates [3]: 33% | inhibition at 10 µM [11, 14]: 12% | inhibition at 10 µM [11, 15]: 12% | inhibition at 10 µM [11, 16]: 20% | inhibition at 10 µM [11, 17]: 7% | inhibition at 10 µM [11, 18]: 10% | inhibition at 3 µM ([5]; read-out: % Inhibition Avg): 24% | inhibition at 3 µM ([5]; read-out: % Inhibition n1): 44% | inhibition at 3 µM ([5]; read-out: % Inhibition n2): 14% | inhibition at 3 µM ([5]; read-out: % Inhibition n3): 14% | inhibition at 3 µM [6, 19]: 4% | inhibition at 3 µM [6, 20]: 21% | inhibition at 3 µM [6, 21]: -5% | inhibition at 3 µM [6, 22]: -4% | inhibition at 3 µM [6, 23]: -8% | inhibition at 3 µM [6, 24]: 20% | inhibition at 3 µM [6, 25]: -10% | inhibition at 3 µM [6, 26]: -5% | IC50 [12]: 13 µM
